The term IC50 denotes the midpoint of a concentration-inhibition curve.

In patent US8962608B2, “Cycloalkylnitrile pyrazole carboxamides as janus kinase inhibitors” (Merck Sharp & Dohme Corp., priority 2011, dated 2015) one finds IC50 data, which are given here for 25 molecules.
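Further: biochemical assay with HTRF read-out.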

The target in the test is JAK1 (recombinant purified GST-tagged catalytic domain) (Homo sapiens (Human), UniProt P23458). Description: biochemical.
Chain of JAK1 (recombinant purified GST-tagged catalytic domain) (P23458 875-1153): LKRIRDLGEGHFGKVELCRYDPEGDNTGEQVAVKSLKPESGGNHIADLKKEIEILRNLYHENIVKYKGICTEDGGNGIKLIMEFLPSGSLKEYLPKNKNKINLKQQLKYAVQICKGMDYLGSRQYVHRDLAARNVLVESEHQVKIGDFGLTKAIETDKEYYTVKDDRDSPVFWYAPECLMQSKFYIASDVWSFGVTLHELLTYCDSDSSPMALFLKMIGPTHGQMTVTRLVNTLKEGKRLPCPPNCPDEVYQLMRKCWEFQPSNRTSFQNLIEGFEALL
As to `N#C[C@H]1C[C@@H](N2CC(O)(C(F)(F)F)C2)CC[C@@H]1n1cc(C(N)=O)c(Nc2ccc(C(F)(F)F)cc2)n1` (single isomer, unassigned) [Example 28-200, 1-{(1S,2S,4S or 1R,2R,4R)-2-cyano-4-[3-hydroxy-3-(trifluoromethyl)azetidin-1-yl]cyclohexyl}-3-{[4-(trifluoromethyl)phenyl]amino}-nvrazole-4-carboxamide], the IC50 is 1 nM.

Take `N#C[C@H]1C[C@H](N2CC(O)(C(F)(F)F)C2)CC[C@@H]1n1cc(C(N)=O)c(Nc2ccc(C(F)(F)F)cc2)n1` (single isomer, unassigned) [Example 28-201, 1-{(1S,2S,4R or 1R,2R,4S)-2-cyano-4-[3-hydroxy-3-(trifluoromethyl)azetidin-1-yl]cyclohexyl}-3-{[4-(trifluoromethyl)phenyl]amino}-1H-pyrazole-4-carboxamide]: the IC50 was 2 nM.

On to `CC1(N[C@@H]2CCC(n3cc(C(N)=O)c(Nc4ccc(Cl)cc4)n3)[C@@H](C#N)C2)CC1` (single isomer, unassigned) [Example 28-206, 3-[(4-chlorophenyl)amino]-1-{(1S,2S,4R or 1R,2R,4S)-2-cyano-4-[(1-methylcyclopropyl)amino]cyclo-hexyl}-1H-pyrazole-4-carboxamide], for which the IC50 was found to be 12 nM.

Turning to `N#C[C@H]1C[C@@H](N2CC(O)(C(F)(F)F)C2)CCC1n1cc(C(N)=O)c(Nc2ccc(Cl)cc2)n1` (single isomer, unassigned) [Example 28-213, 3-[(4-chlorophenyl)amino]-1-{(1S,2S,4S or 1R,2R,4R)-2-cyano-4-[3-hydroxy-3-(trifluoromethyl)azetidin-1-yl]cyclohexyl}-1H-pyrazole-4-carboxamide], the 50% inhibitory concentration (IC50) turned out to be 1 nM.

Regarding `N#C[C@H]1C[C@@H](NC2CCOCC2)CCC1n1cc(C(N)=O)c(Nc2ccc(Cl)cc2)n1` (single isomer, unassigned) [Example 28-218, 3-[(4-chlorophenyl)amino]-1-[(1S,2S,4S or 1R,2R,4R)-2-cyano-4-(tetrahydro-2H-pyran-4-ylamino)cyclohexyl]-1H-pyrazole-4-carboxamide], the IC50 came out at 4 nM.

As for `COCC(C)(C)N[C@H]1CCC(n2cc(C(N)=O)c(Nc3ccc(Cl)cc3)n2)[C@@H](C#N)C1` (single isomer, unassigned) [Example 28-222, 3-[(4-chlorophenyl)amino]-1-{(1S,2S,4S or 1R,2R,4R)-2-cyano-4-[(2-methoxy-1,1-dimethylethyl)amino]cyclo-hexyl}-1H-pyrazole-4-carboxamide], the IC50 was determined as 0.8 nM.

For `N#C[C@H]1C[C@@H](NCC(F)(F)F)CC[C@@H]1n1cc(C(N)=O)c(Nc2ccc(Cl)cc2)n1` (single isomer, unassigned) [Example 28-224, 3-[(4-chlorophenyl)amino]-1-{(1S,2S,4S or 1R,2R,4R)-2-cyano-4-[(2,2,2-trifluoroethyl)amino]cyclo-hexyl}-1H-pyrazole-4-carboxamide], the IC50 was 3 nM.

Consider `N#C[C@H]1C[C@H](NCC(F)(F)F)CC[C@@H]1n1cc(C(N)=O)c(Nc2ccc(Cl)cc2)n1` (single isomer, unassigned) [Example 28-225, 3-[(4-chlorophenyl)amino]-1-{(1S,2S,4R or 1R,2R,4S)-2-cyano-4-[(2,2,2-trifluoroethyl)amino]cyclohexyl}-1H-pyrazole-4-carboxamide], for which the IC50 came out at 12 nM.

With `CN([C@H]1CCC(n2cc(C(N)=O)c(Nc3ccc(Cl)cc3)n2)[C@@H](C#N)C1)C(C)(C)C1CC1` (single isomer, unassigned) [Example 28-229, 3-[(4-chlorophenyl)amino]-1-{(1S,2S,4S or 1R,2R,4R)-2-cyano-4-[(1-cyclopropyl-1-methylethyl)(methyl)amino]cyclo-hexyl}-1H-pyrazole-4-carboxamide], the IC50 is 1 nM.

In the case of `COCC(C)(C)N[C@H]1CCC(n2cc(C(N)=O)c(Nc3ccccc3)n2)[C@@H](C#N)C1` (single isomer, unassigned) [Example 28-231, 1-{(1S,2S,4S or 1R,2R,4R)-2-cyano-4-[(2-methoxy-1,1-dimethylethyl)amino]cyclo-hexyl}-3-(phenylamino)-1H-pyrazole-4-carboxamide], the IC50 came out at 16 nM.

With `COCC(C)(C)N(C)[C@H]1CCC(n2cc(C(N)=O)c(Nc3ccc(Cl)cc3)n2)[C@@H](C#N)C1` (single isomer, unassigned) [Example 28-234, 3-[(4-chlorophenyl)amino]-1-{(1S,2S,4S or 1R,2R,4R)-2-cyano-4-[(2-methoxy-1,1-dimethylethyl)(methyl)ami-no]cyclohexyl}-1H-pyrazole-4-carboxamide], the half-maximal inhibitory concentration (IC50) came to 2 nM.

For the molecule `COCC(C)N[C@H]1CCC(n2cc(C(N)=O)c(Nc3ccc(Cl)cc3)n2)[C@@H](C#N)C1` (single isomer, unassigned) [Example 28-237, 3-[(4-chlorophenyl)amino]-1-[(1S,2S,4S or 1R,2R,4R)-2-cyano-4-{[(1S)-2-methoxy-1-methylethyl]amino}cyclohexyl]-1H-pyrazole-4-carboxamide], the IC50 stood at 1 nM.

For `COCC(C)N[C@H]1CCC(n2cc(C(N)=O)c(Nc3ccc(Cl)cc3)n2)[C@@H](C#N)C1` (single isomer, unassigned) [Example 28-238, 3-[(4-chlorophenyl)amino]-1-[(1S,2S,4S or 1R,2R,4R)-2-cyano-4-{[(1S)-2-methoxy-1-methylethyl]amino}cyclohexyl]-1H-pyrazole-4-carboxamide], the IC50 is 2 nM.

Regarding `CC(C)(O)C1CC(CN[C@H]2CC[C@@H](n3cc(C(N)=O)c(Nc4ccc(C(F)(F)F)cc4)n3)[C@H](C#N)C2)C1` (single isomer, unassigned) [Example 30-4, 1-[(1R,2R,4S or 1S,2S,4R)-2-cyano-4-({[3-(1-hydroxy-1-methylethyl)cyclo-butyl]methyl}amino)cyclo-hexyl]-3-{[4-(trifluoro-methyl)phenyl]amino}-1H-pyrazole-4-carboxamide], the IC50 is 1 nM.

Turning to `CC(C)CN(CC1CC1)[C@H]1CC[C@@H](n2cc(C(N)=O)c(Nc3ccc(C(F)(F)F)cc3)n2)[C@H](C#N)C1` (single isomer, unassigned) [Example 30-9, l-{(1R,2R,4S or 1S,2S,4R)-2-cyano-4-[(cyclopropylmethyl)(2-methylpropyl)amino]cyclo-hexyl}-3-{[4-(trifluoromethyl)phenyl]amino}-1H-pyrazole-4-carboxamide], the IC50 amounted to 16 nM.

On to `C=C[C@]1(O)CC[C@H](n2cc(C(N)=O)c(Nc3ccc(Cl)cc3)n2)[C@@H](C#N)C1` (single isomer, unassigned) [Example 32-5, 3-[(4-chlorophenyl)amino]-1-[(1S,2S,4S or 1R,2R,4R)-2-cyano-4-ethenyl-4-hydroxycyclohexyl]-1H-pyrazole-4-carboxamide], for which the IC50 came out at 3 nM.

For the molecule `C[C@@]1(O)CC[C@H](n2cc(C(N)=O)c(Nc3ccc(Cl)c(F)c3)n2)[C@@H](C#N)C1` (single isomer, unassigned) [Example 32-7, 3-[(4-chloro-3-fluorophenyl)amino]-1-[(1S,2S,4R or 1R,2R,4S)-2-cyano-4-hydroxy-4-methylcyclohexyl]-1H-pyrazole-4-carboxamide], the IC50 came out at 5 nM.

Consider `C[C@]1(O)CC[C@H](n2cc(C(N)=O)c(Nc3ccc(Cl)cc3)n2)[C@@H](C#N)C1` (single isomer, unassigned) [Example 32-10, 3-[(4-chlorophenyl)amino]-1-[(1S,2S,4S or 1R,2R,4R)-2-cyano-4-hydroxy-4-methylcyclohexyl]-1H-pyrazole-4-carboxamide], for which the IC50 was found to be 1 nM.

On to `N#C[C@H]1C[C@](O)(C2CC2)CC[C@@H]1n1cc(C(N)=O)c(Nc2ccc(Cl)cc2)n1` (single isomer, unassigned) [Example 32-12, 3-[(4-chlorophenyl)aminol-1-[(1S,2S,4S or 1R,2R,4R)-2-cyano-4-cyclopropyl-4-hydroxycyclohexyl]-1H-pyrazole-4-carboxamide], for which the IC50 worked out at 1 nM.

`C[C@@]1(O)CC[C@H](n2cc(C(N)=O)c(Nc3ccc(Cl)cc3)n2)[C@@H](C#N)C1` (single isomer, unassigned) [Example 32-13, 3-[(4-chlorophenyl)amino]-1-[(1S,2S,4R or 1R,2R,4S)-2-cyano-4-hydroxy-4-methylcyclohexyl]-1H-pyrazole-4-carboxamide]: the IC50 was found to be 3 nM.

`N#C[C@H]1C[C@@](O)(C2CC2)CC[C@@H]1n1cc(C(N)=O)c(Nc2ccc(Cl)cc2)n1` (single isomer, unassigned) [Example 32-14, 3-[(4-chlorophenyl)amino]-1-[(1S,2S,4R or 1R,2R,4S)-2-cyano-4-cyclopropyl-4-hydroxycyclohexyl]-1H-pyrazole-4-carboxamide]: the IC50 stood at 15 nM.

Take `C=C[C@@]1(O)CC[C@H](n2cc(C(N)=O)c(Nc3ccc(Cl)cc3)n2)[C@@H](C#N)C1` (single isomer, unassigned) [Example 32-16, 3-[(4-chlorophenyl)amino]-1-[(1S,2S,4R or 1R,2R,4S)-2-cyano-4-ethenyl-4-hydroxycyclohexyl]-1H-pyrazole-4-carboxamide]: the IC50 amounted to 0.85 nM.

Take `C[C@]1(O)CC[C@H](n2cc(C(N)=O)c(Nc3ccc(Cl)c(F)c3)n2)[C@@H](C#N)C1` (single isomer, unassigned) [Example 32-17, 3-[(4-chloro-3-fluorophenyl)amino]-1-[(1S,2S,4S or 1R,2R,4R)-2-cyano-4-hydroxy-4-methylcyclohexyl]-1H-pyrazole-4-carboxamide]: the IC50 stood at 2 nM.

As for `N#C[C@H]1C[C@@H](O)CC[C@@H]1n1cc(C(N)=O)c(Nc2ccc(Cl)c(F)c2)n1` (single isomer, unassigned) [Example 33-3, 3-[(4-chloro-3-fluorophenyl)amino]-1-[(1S,2S,4S or 1R,2R,4R)-2-cyano-4-hydroxycyclohexyl]-1H-pyrazole-4-carboxamide], the IC50 stood at 2 nM.

Consider `CC(C)(CF)c1ccc(Nc2nn([C@H]3CC[C@H](O)C[C@@H]3C#N)cc2C(N)=O)cc1` (single isomer, unassigned) [Example 33-21, 1-[(1S,2S,4S or 1R,2R,4R)-2-cyano-4-hydroxycyclohexyl]-3-{[4-(2-fluoro-1,1-dimethylethyl)phenyl]amino}-1H-pyrazole-4-carboxamide], for which the IC50 is 1 nM.
